Read-outs that look alike come from different tables or passages of the source.
What was measured:
[1] = ADC stability study: % aggregates by SEC after incubation at 37° C. for 168 h; format: physicochemical
Experimental: Size Exclusion Chromatography: Size exclusion chromatography (SEC) was performed for quality control of each ADCs by measuring monomer percentage of the conjugate. The analysis was performed on analytical column Superdex 200 Increase 5/150 GL (GE Healthcare, 28990945) in isocratic conditions 100% PBS pH7.4 (Sigma Life Science, P3813, 10PAK), flow 0.45 mI/min for 12 minutes. The % aggregate fraction of the conjugate sample was quantified based on the peak area absorbance at 280 nm. Its calculation was based on the ratio between the high molecular weight eluent at 280 nm divided by the sum of peak area absorbance at the same wavelength of the high molecular weight and monomeric eluents multiplied by 100.
Characterization of the exemplary ADCs is summarized in Table 13 (coupling, LC-MS method, OAR, aggregation status, ADO stability and yield). The average OAR values were determined using the above LC-MS methods and the percentage of aggregates was measured by size exclusion chromatography (SEC) during the quality control of the ADO and after the stability study (incubation at 37° C. for 168 h).

[2] = test system: H1650 cells; experiment: CellTiterGlo (CTG) cell viability, 3D, 120 h, H1650 (Example 8); format: cell-based, human
[3] = test system: ALL-SIL cells; experiment: CellTiterGlo (CTG) cell viability, 72 h, ALL-SIL (Example 8); format: cell-based
Experimental: ALL-SIL cells were cultivated in RPMI supplemented with 20% heat inactivated fetal bovine serum, penicillin (100 IU/ml), streptomycin (100 μg/ml) and L-glutamine (2 mM). Cell lines were cultured at 37° C. in a humidified atmosphere containing 5% CO2. Cells were seeded in 96 well clear bottom plates (96 well clear-bottom, white, Corning reference 3903) and exposed to the payloads or ADCs for 72 h (serially diluted; 9 concentrations each, triplicates). Effects of payloads or ADCs on cell viability were assessed after 3 days of incubation at 37° C./5% CO2 by quantification of cellular ATP levels using CellTiterGlo at 75 μL reagent/well. All the conditions were tested in triplicates. Luminescence was quantified on a multipurpose plate reader. IC50s were calculated using standard four-parametric curve fitting. […] Each experiment was performed at least twice, with results being reproducible.

[4] = test system: DND-41 cells; experiment: CellTiterGlo (CTG) cell viability, 72 h, DND-41 (Example 8); format: cell-based
Experimental: DND-41 cells were cultivated in RPMI supplemented with 10% heat inactivated fetal bovine serum, penicillin (100 IU/ml), streptomycin (100 μg/ml) and L-glutamine (2 mM). Cell lines were cultured at 37° C. in a humidified atmosphere containing 5% CO2. […] Effects of payloads or ADCs on cell viability were assessed after 3 days of incubation at 37° C./5% CO2 by quantification of cellular ATP levels using CellTiterGlo at 75 μL reagent/well. All the conditions were tested in triplicates. Luminescence was quantified on a multipurpose plate reader. IC50s were calculated using standard four-parametric curve fitting.

[5] = H1650 3D, experiment n1, read-out: H1650 3D CTG IC50 n1
[6] = H1650 3D, experiment n2, read-out: H1650 3D CTG IC50 n2
[7] = H1650 3D, mean of n1 and n2, read-out: H1650 3D CTG IC50 Mean of n1 and n2
[8] = experiment n1, read-out: ALLSIL CTG 72 h IC50 nM n1
[9] = experiment n2, read-out: ALLSIL CTG 72 h IC50 nM n2
[10] = mean of n1 and n2, read-out: ALLSIL CTG 72 h IC50 nM Mean of n1 and n2
[11] = Homo sapiens, NCI-H1650, H1650 3D, experiment n1, read-out: H1650 3D CTG IC50 n1
[12] = Homo sapiens, NCI-H1650, H1650 3D, experiment n2, read-out: H1650 3D CTG IC50 n2
[13] = Homo sapiens, NCI-H1650, H1650 3D, mean of n1 and n2, read-out: H1650 3D CTG IC50 Mean of n1 and n2
[14] = DND41, experiment n1, read-out: DND41 CTG 72 h IC50 nM n1
[15] = DND41, experiment n2, read-out: DND41 CTG 72 h IC50 nM n2
[16] = DND41, mean of n1 and n2, read-out: DND41 CTG 72 h IC50 nM Mean of n1 and n2

| IC50 [2, 11] | IC50 [2, 12] | IC50 [2, 13] | Compound | Stab w1 +37° C. % Agg (by SEC) [1] | IC50 [2, 5] | IC50 [2, 6] | IC50 [2, 7] | IC50 [3, 8] | IC50 [3, 9] | IC50 [3, 10] | IC50 [4, 14] | IC50 [4, 15] | IC50 [4, 16] |
| --- | --- | --- | --- | --- | --- | --- | --- | --- | --- | --- | --- | --- | --- |
| – | – | – | Cc1cc(N(C)c2ccc(-c3cnn(C[C@]45C[C@]6(C)C[C@](C)(C4)C[C@@](OCCN(CCCO)C(=O)OCc4ccc(NC(=O)[C@H](CCCNC(N)=O)CC(=O)[C@@H](NC(=O)CCOCCN7C(=O)CC(C)C7=O)C(C)C)cc4)(C6)C5)c3C)c(C(=O)O)n2)nnc1Nc1nc2ccccc2s1 (mixture of isomers) [Ab C - L9C-P26] | 3% | 0.12 nM | 0.11 nM | 0.12 nM | – | – | – | – | – | – |
| – | – | – | Cc1c(Nc2nc3ccccc3s2)nnc2c1CCCN2c1nc(C(=O)[O-])c(CCCOc2ccc(C#CC[N+](C)(C)Cc3ccc(NC(=O)[C@H](CCCNC(N)=O)NC(=O)[C@@H](NC(=O)CCOCCN4C(=O)CC(C)C4=O)C(C)C)cc3)cc2F)[nH]1 (stereo partly shown) [Ab C - L9A-P1] | 6% | 0.49 nM | 0.33 nM | 0.41 nM | – | – | – | – | – | – |
| – | – | – | Cc1c(Nc2nc3ccccc3s2)nnc2c1CCCN2c1nc(C(=O)[O-])c(CCCOc2ccc(C#CC(C)N3CC[N+](C)(Cc4ccc(NC(=O)[C@H](CCCNC(N)=O)NC(=O)[C@@H](NC(=O)CCOCCN5C(=O)CC(C)C5=O)C(C)C)cc4)CC3)cc2F)s1 (stereo partly shown) [Ab C - L9A-P8] | 7% | 0.14 nM | 0.3 nM | 0.22 nM | – | – | – | – | – | – |
| – | – | – | Cc1cc(N(C)c2nc(C(=O)[O-])c(CCCOc3ccc(C#CC(C)[N+](C)(C)Cc4ccc(NC(=O)[C@H](CCCNC(N)=O)NC(=O)[C@@H](NC(=O)CCOCCN5C(=O)CC(C)C5=O)C(C)C)cc4)cc3F)s2)nnc1Nc1nc2ccccc2s1 (stereo partly shown) [Ab C - L9A-P11] | 2.4% | 0.5 nM | 0.5 nM | 0.5 nM | – | – | – | – | – | – |
| – | – | – | CC[N+](C)(CC#Cc1ccc(OCCCc2sc(N3CCCc4c3nnc(Nc3nc5ccccc5s3)c4C)nc2C(=O)O)c(F)c1)Cc1ccc(NC(=O)[C@H](CCCNC(N)=O)NC(=O)[C@@H](NC(=O)CCOCCN2C(=O)CC(C)C2=O)C(C)C)cc1 (stereo partly shown) [Ab C - L9A-P13] | 0.2% | 0.9 nM | 0.7 nM | 0.8 nM | – | – | – | – | – | – |
| – | – | – | CC[N+](CC)(CC#Cc1ccc(OCCCc2sc(N3CCCc4c3nnc(Nc3nc5ccccc5s3)c4C)nc2C(=O)[O-])c(F)c1)Cc1ccc(NC(=O)[C@H](CCCNC(N)=O)NC(=O)[C@@H](NC(=O)CCOCCN2C(=O)CC(C)C2=O)C(C)C)cc1 (stereo partly shown) [Ab C - L9A-P14] | 7% | 1.3 nM | 0.4 nM | 0.85 nM | – | – | – | – | – | – |
| – | – | – | Cc1c(NC2Nc3ccccc3S2)nnc2c1CCCN2c1nc(C(=O)[O-])c(CCCOc2ccc(C#CC[N+]3(Cc4ccc(NC(=O)[C@H](CCCNC(N)=O)NC(=O)[C@@H](NC(=O)CCCCCN5C(=O)CC(C)C5=O)C(C)C)cc4)CCCCC3)cc2F)s1 (stereo partly shown) [Ab C - L9A-P18] | 3% | 1.2 nM | 1.25 nM | 1.23 nM | – | – | – | – | – | – |
| – | – | – | C=C(C)CCCC[C@](C)(CC(=C)[C@@](C)(CC(=C)CCCCCC1C(=C)CC(C)C1=C)C(C)C)C(=C)Cc1ccc(CC(C)(C)CCC[C@]23C[C@]4(C)C[C@](C)(C2)C[C@@](CC2C=CC(c5ccc(C6CCCc7c6ccc(CC6=Cc8ccccc8C6)c7C)cc5C(=C)C)=C2C)(C4)C3)cc1 (stereo partly shown) [Ab C - L9A-P27] | 16% | 0.3 nM | 0.22 nM | 0.26 nM | – | – | – | – | – | – |
| – | – | – | CC(=O)CCCC[C@](C)(CC(=O)[C@@](C)(CC(=O)CCCCCC1C(=O)CC(C)C1=O)C(C)C)C(=O)Cc1ccc(CC(C)(C)CC#Cc2ccc(CCCCC3=C(C(C)=O)C=C(C4CCCc5c4ccc(CC4=Cc6ccccc6C4)c5C)C3)cc2)cc1 (stereo partly shown) [Ab C - L9A-P28] | 15% | 0.21 nM | 0.2 nM | 0.21 nM | – | – | – | – | – | – |
| – | – | – | Cc1c(Nc2nc3ccccc3s2)nnc2c1CCCN2c1nc(C(=O)O)c(CCCOc2ccc(C#CCN(CCN(C)C)C(=O)OCc3ccc(NC(=O)[C@H](CCCNC(N)=O)NC(=O)[C@@H](NC(=O)CCOCCN4C(=O)CC(C)C4=O)C(C)C)cc3)cc2F)s1 (stereo partly shown) [Ab C - L9C-P12] | 4% | 0.6 nM | 0.9 nM | 0.75 nM | – | – | – | – | – | – |
| – | – | – | Cc1c(Nc2nc3ccccc3s2)nnc2c1CC(OCCN(C)C(=O)OCc1ccc(NC(=O)[C@H](CCCNC(N)=O)NC(=O)[C@@H](NC(=O)CCOCCN3C(=O)CC(C)C3=O)C(C)C)cc1)CN2c1nc(C(=O)O)c(CCCOc2ccc(C#CCN(C)C)cc2F)s1 (stereo partly shown) [Ab C - L9C-P16] | 2.4% | 3.9 nM | 4.2 nM | 4.05 nM | – | – | – | – | – | – |
| – | – | – | Cc1c(Nc2nc3ccccc3s2)nnc2c1CCCN2c1nc(C(=O)O)c(CCCOc2ccc(C#CCN3CCN(C(=O)OCc4ccc(NC(=O)[C@H](CCCNC(N)=O)NC(=O)[C@@H](NC(=O)CCOCCN5C(=O)CC(C)C5=O)C(C)C)cc4)CC3)cc2F)s1 (stereo partly shown) [Ab C - L9C-P17] | 22% | 2.85 nM | 2.51 nM | 2.68 nM | – | – | – | – | – | – |
| – | – | – | C=C(C)CCCC[C@](C)(CC(=C)[C@@](C)(CC(=C)CCCCCC1C(=C)CC(C)C1=C)C(C)C)C(=C)Cc1ccc(CCC(=C)C(CCCCC)CCC[C@]23C[C@]4(C)C[C@](C)(C2)C[C@@](CC2C=CC(c5ccc(C(C)c6ccc(CC7=Cc8ccccc8C7)c(C)c6)cc5C(=C)C)=C2C)(C4)C3)cc1 (stereo partly shown) [Ab C - L9C-P29] | 16% | 0.13 nM | 0.09 nM | 0.11 nM | – | – | – | – | – | – |
| 2.89 nM | 1.43 nM | 2.16 nM | Cc1c(Nc2nc3ccccc3s2)nnc2c1CCCN2c1ccc(-c2cnn(C[C@]34C[C@]5(C)C[C@](C)(C3)C[C@@](OCCNCC[C@H](O)CO)(C5)C4)c2C)c(C(=O)O)n1 [P19, 6-{3-[(1,3-benzothiazol-2-yl)amino]-4-methyl-6,7-dihydropyrido[2,3-c]pyridazin-8(5H)-yl}-3-(1-{[3-(2-{[(3S)-3,4-dihydroxybutyl]amino}ethoxy)-5,7-dimethyladamantan-1-yl]methyl}-5-methyl-1H-pyrazol-4-yl)pyridine-2-carboxylic acid] | – | – | – | – | 4.02 nM | 3.5 nM | 3.76 nM | 10.8 nM | 7.2 nM | 9 nM |
| 0.36 nM | 0.5 nM | 0.43 nM | Cc1c(Nc2nc3ccccc3s2)nnc2c1CCCN2c1ccc(-c2cnn(CC34CC5(C)CC(C)(C3)CC(OCCN3CCN(C)CC3)(C5)C4)c2C)c(C(=O)O)n1 [P20, 6-[3-(1,3-benzothiazol-2-ylamino)-4-methyl-6,7-dihydro-5H-pyrido[2,3-c]pyridazin-8-yl]-3-[1-[[3,5-dimethyl-7-[2-(4-methylpiperazin-1-yl)ethoxy]-1-adamantyl]methyl]-5-methyl-pyrazol-4-yl]pyridine-2-carboxylic acid] | – | – | – | – | 0.02 nM | 0.08 nM | 0.05 nM | 0.38 nM | 0.24 nM | 0.31 nM |
| 0.77 nM | 0.79 nM | 0.78 nM | Cc1c(Nc2nc3ccccc3s2)nnc2c1CCCN2c1ccc(-c2cnn(C[C@]34C[C@]5(C)C[C@](C)(C3)C[C@@](OCCNCCCCO)(C5)C4)c2C)c(C(=O)O)n1 [P22, 6-[3-(1,3-benzothiazol-2-ylamino)-4-methyl-6,7-dihydro-5H-pyrido[2,3-c]pyridazin-8-yl]-3-[1-[[3-[2-(4-hydroxybutylamino)ethoxy]-5,7-dimethyl-1-adamantyl]methyl]-5-methyl-pyrazol-4-yl]pyridine-2-carboxylic acid] | – | – | – | – | 0.26 nM | 0.5 nM | 0.38 nM | 0.45 nM | 0.26 nM | 0.36 nM |

Source: patent US20240269304A1, “BCL-XL INHIBITOR ANTIBODY-DRUG CONJUGATES AND METHODS OF USE THEREOF” (Novartis AG, priority 2020, published 2024)
